Assay results reported in article PMC6435540, “LipG a bifunctional phospholipase/thioesterase involved in mycobacterial envelope remodeling” (Bioscience Reports, 2018).
Converted amounts (≈) assume the structure as drawn. “Also recorded” adds a separate entry of the source. Read-outs that look alike come from different tables or passages of the source.

Experiments:
[1] = tested on: intramacrophagic M. tuberculosis; set-up: method as in PMID 28924204, PMID 30292819; details: infected macrophages; ref [28],[42]; cited from earlier work
rLipGMTB = assay: Inhibition of rLipGMTB, enzyme-inhibitor pre-incubation method, residual activity on pNP-C6; format: biochemical; details: for xI50: inhibitor molar excess leading to 50% enzyme inhibition; for xI50 / % inhibition xI = 4 / % inhibition xI = 100: 30-min incubation at 25°C, substrate pNP-C6; for % inhibition xI = 4: inhibitor molar excess xI = 4; for % inhibition xI = 100: inhibitor molar excess xI = 100; for Inhibitory effect on rLipGMTB (in words): pure rLipGMTB, molar excess up to xI = 100
[2] = tested on: extracellular M. tuberculosis; details: cited from earlier work; for Activity against extracellular M. tuberculosis (in words): growth in vitro, ref [28],[42]; for Activity against extracellularly growing M. tuberculosis (in words): ref [27],[28]
[3] = tested on: M. smegmatis lipGMS::Hyg CompMTB; assay: microbe, parasite or virus in culture; format: cell-based; details: for Fold change compared with WT: MIC50 of lipGMS::Hyg CompMTB strain versus WT; for MIC50: Mycolicibacterium smegmatis
M. smegmatis WT = assay: REMA susceptibility testing, WT strain
Description: Susceptibility testing was performed using the Middlebrook 7H9 broth microdilution method. All assays for each strain were carried out at least in triplicate. MICs against the various M. smegmatis bacterial strains were determined in 96-well flat-bottom Nunclon Delta Surface microplates with lid (Thermo Fisher Scientific) using REMA method [59]. Briefly, log-phase bacteria were diluted to a cell density of 5 × 10^6 cells/ml in 7H9-S medium. […] Growth controls containing no inhibitor (i.e., bacteria only), inhibition controls containing 50 μg/ml kanamycin and sterility controls (i.e. medium only) without inoculation were also included. Plates were incubated at 37°C in a humidity chamber [60] to prevent evaporation for 3–5 days. Then, 20 µl of a 0.02% (w/v) resazurin solution was added to each well, and the plates were incubated at 37°C for color change from blue to pink or violet and for a reading of fluorescence units (FU). Fluorescence corresponding to the resazurin reduction to its metabolite resorufin was quantitated using a Tecan Spark 10M multimode microplate reader (Tecan Group Ltd, France) with excitation at 530 nm and emission at 590 nm. Fluorometric MICs were determined by fitting the RFU% sigmoidal dose–response curves [28, 29] in Kaleidagraph 4.2 software (Synergy Software). MIC values determined as the lowest compound concentrations inhibiting 50% of growth were defined as the MIC50.
M. smegmatis lipGMS::Hyg = assay: microbe, parasite or virus in culture; format: cell-based; details: for MIC50: Mycolicibacterium smegmatis
[4] = tested on: M. smegmatis lipGMS::Hyg Comp; assay: microbe, parasite or virus in culture; format: cell-based; details: for MIC50: Mycolicibacterium smegmatis; for Fold change compared with WT: MIC50 of lipGMS::Hyg Comp strain versus WT
[5] = Mycolicibacterium smegmatis, WT strain, REMA, concentration leading to 50% growth inhibition
[6] = WT strain, REMA, concentration leading to 50% growth inhibition

| SMILES | Activity against intramacrophagic M. tuberculosis (in words) [1] | xI50 (rLipGMTB) | % inhibition xI = 4 (rLipGMTB) | % inhibition xI = 100 (rLipGMTB) | Inhibitory effect on rLipGMTB (in words) (rLipGMTB) | Activity against extracellular M. tuberculosis (in words) [2] | Fold change compared with WT [3] | MIC50 ([3]; lipGMS::Hyg CompMTB strain, REMA, concentration leading to 50% growth inhibition, read-out: MIC50) | Activity against extracellularly growing M. tuberculosis (in words) [2] | MIC50 (M. smegmatis WT; Mycolicibacterium smegmatis) | MIC50 (M. smegmatis lipGMS::Hyg) | MIC50 ([4]; lipGMS::Hyg Comp strain, REMA, concentration leading to 50% growth inhibition, read-out: MIC50) | MIC50 (M. smegmatis WT; [5]) | Fold change compared with WT (M. smegmatis lipGMS::Hyg; MIC50 of lipGMS::Hyg strain versus WT) | Fold change compared with WT [4] | MIC50 [4] | MIC50 [3] | MIC50 (M. smegmatis WT; [6]) |
| --- | --- | --- | --- | --- | --- | --- | --- | --- | --- | --- | --- | --- | --- | --- | --- | --- | --- | --- |
| CCCCCCCCCCC1CCP(=O)(OC)OC(C)=C1C(=O)OC (stereo not drawn) [CyC7α] | active on infected macrophages only | 5.0 | 47.4 ± 0.81% | 81.4 ± 1.6% | strong dose-dependent inhibition |  |  |  |  |  |  |  |  |  |  |  |  |  |
| CCCCCCCCCCC1CCP(=O)(OC)OC(C)=C1C(=O)OC (stereo not drawn) [CyC7β] | strong activity | 48.1 | 7.9 ± 0.72% | 57.6 ± 2.0% | very weak inhibitory effects | strong activity |  |  |  |  |  |  |  |  |  |  |  |  |
| CCCCCCCCCCCCC1CCP(=O)(OC)OC(C)=C1C(=O)OC (stereo not drawn) [CyC8β] | active on infected macrophages only | >200 | 3.2 ± 0.16% | 32.0 ± 1.5% | very weak inhibitory effects |  |  |  |  |  |  |  |  |  |  |  |  |  |
| CCCCCCCCCCCCCCCCOP1(=O)OCCC(C(=O)OC)=C(C)O1 (stereo not shown) [CyC17] | no activity | 0.98 | 66.4 ± 4.5% | 95.4 ± 2.6% | strong dose-dependent inhibition; also recorded: strong inhibitory effect | efficiently block M. tuberculosis growth in vitro | ×1.1 | 0.65 µg/mL (≈ 1.46 µM) | only active against extracellularly growing M. tuberculosis strain | 0.56 µg/mL (≈ 1.25 µM) | 9.6 µg/mL (≈ 21.5 µM) | 0.6 µg/mL (≈ 1.34 µM) |  |  |  |  |  |  |
| CCCCCCOc1nn(-c2ccccc2)c(=O)o1 [HPOX] | no activity | 2.9 | 58.5 ± 1.4% | 93.8 ± 5.7% | strong inhibitory effect | efficiently block M. tuberculosis growth in vitro |  |  | only active against extracellularly growing M. tuberculosis strain |  | 18.4 µg/mL (≈ 70.1 µM) |  | 8.4 µg/mL (≈ 32 µM) | 2.2 × | ~1.5 × | 12.2 µg/mL (≈ 46.5 µM) |  |  |
| CCCCCCOc1nn(-c2ccc(Oc3ccccc3)cc2)c(=O)o1 [HpPPOX] | active on infected macrophages only | 3.5 | 61.8 ± 4.7% | 73.8 ± 1.0% |  |  |  |  |  |  |  |  |  |  |  |  |  |  |
| NNC(=O)c1ccncc1 [INH, isoniazid] |  |  |  |  |  |  | ×1.3 |  |  |  | 2.9 µg/mL (≈ 21.1 µM) |  | 0.76 µg/mL (≈ 5.54 µM) |  | ×1.2 | 1.8 µg/mL (≈ 13.1 µM) | 1.9 µg/mL (≈ 13.9 µM) | 1.4 µg/mL (≈ 10.2 µM) |
| COc1nn(-c2cccc(Oc3ccccc3)c2)c(=O)o1 [MmPPOX] |  | 3.1 | 54.1 ± 1.5% | 82.0 ± 3.8% |  |  |  |  |  |  |  |  |  |  |  |  |  |  |
| CCCCCCCCCCC[C@@H](C[C@@H]1OC(=O)[C@H]1CCCCCC)OC(=O)[C@H](CC(C)C)NC=O [Orlistat, reference compound] |  | 15.2 | 10.8 ± 0.17% | 69.5 ± 5.3% | moderate inhibitory activity |  | ×1.6 |  |  |  | 6.5 µg/mL (≈ 13.1 µM) |  | 0.97 µg/mL (≈ 1.96 µM) |  | ×1.3 | 1.2 µg/mL (≈ 2.42 µM) | 1.6 µg/mL (≈ 3.23 µM) |  |
| CO[C@H]1/C=C/O[C@@]2(C)Oc3c(C)c(O)c4c(O)c(c(/C=N/N5CCN(C)CC5)c(O)c4c3C2=O)NC(=O)/C(C)=C\C=C\[C@H](C)[C@H](O)[C@@H](C)[C@@H](O)[C@@H](C)[C@H](OC(C)=O)[C@@H]1C [RIF, rifampicin] |  |  |  |  |  |  | ×1.3 |  |  |  | 3.3 µg/mL (≈ 4.01 µM) |  | 1.4 µg/mL (≈ 1.7 µM) |  | ×1.2 | 0.89 µg/mL (≈ 1.08 µM) | 0.96 µg/mL (≈ 1.17 µM) | 0.76 µg/mL (≈ 0.924 µM) |
| CC(C)COc1nn(-c2ccc(Oc3ccccc3)cc2)c(=O)o1 [iBpPPOX] | strong activity | 14.7 | 40.5 ± 3.1% | 60.6 ± 0.22% |  | strong activity |  |  |  |  |  |  |  |  |  |  |  |  |
